Reference: ChEMBL document CHEMBL3880387, “Bis aromatic compounds for use as LTC4 synthase inhibitors” (2013)
Converted amounts (≈) assume the structure as drawn.

Assay: Thermodynamic solubility of the compound in monobasic potassium phosphate buffer at pH 7.4 after 24 hrs by LC-MS/MS analysis
Format: physicochemical
Conditions: read-out: Therm_solubility

## CN(c1ccc(Cl)cc1)c1ccc(C(=O)c2ccc(C(=O)C3(c4ccccc4)CCCCC3)c(C(=O)O)c2)nc1
  solubility thermodynamic at 24 h: 7 µM (≈ 3.87 µg/mL)
